The record followed here is ChEMBL document CHEMBL4613264, “Design, Synthesis, and Biological Evaluation of New Peripheral 5HT2A Antagonists for Nonalcoholic Fatty Liver Disease” (J Med Chem, 2020).

A word on the IC50: it is the point on the concentration scale where inhibition reaches its midpoint.

The target of data set [1] is 5-hydroxytryptamine receptor 2A (Homo sapiens, UniProt P28223). The data set is described as follows: Antagonist activity at 5HT2A receptor (unknown origin) expressed in HEK293 cells assessed as inhibition of serotonin hydrochloride-induced calcium flux preincubated for 1 hr followed by serotonin hydrochloride addition by calcium 6 dye based FLIPR assay. In kind it is functional, cell-based. (A change in cytosolic calcium serves as a functional read-out for many receptors and channels.)

A short description of data set [2]: Drug level in ICR mouse brain at 10 mg/kg, ip measured after 0.5 hrs by LC-MS/MS analysis. The following applies: read-out: Drug uptake.
The nature of data set [3]: Plasma concentration in ICR mouse at 10 mg/kg, ip measured after 0.5 hrs by LC-MS/MS analysis.
Data set [4] in a line: Ratio of drug level in brain to plasma of ICR mouse at 10 mg/kg, ip measured after 0.5 hrs by LC-MS/MS analysis. The following applies: read-out: BPR.

5-hydroxytryptamine receptor 2A, sequence (P28223 whole entry): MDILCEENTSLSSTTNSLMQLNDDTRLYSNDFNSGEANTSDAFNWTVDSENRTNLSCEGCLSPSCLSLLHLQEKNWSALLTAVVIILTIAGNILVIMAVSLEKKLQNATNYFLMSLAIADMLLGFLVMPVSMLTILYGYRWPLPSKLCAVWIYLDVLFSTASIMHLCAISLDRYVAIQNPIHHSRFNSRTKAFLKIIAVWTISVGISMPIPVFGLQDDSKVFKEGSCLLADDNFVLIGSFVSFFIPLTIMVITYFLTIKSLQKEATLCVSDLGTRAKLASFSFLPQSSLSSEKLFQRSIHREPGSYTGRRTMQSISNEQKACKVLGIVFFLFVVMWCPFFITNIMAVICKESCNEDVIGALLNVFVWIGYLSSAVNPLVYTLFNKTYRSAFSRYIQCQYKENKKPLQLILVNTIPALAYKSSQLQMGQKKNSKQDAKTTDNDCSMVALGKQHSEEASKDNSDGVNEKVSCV

On to `CC(C)COc1ccc(CNC(=O)N(Cc2ccc(F)cc2)C2CCNCC2)cc1`, for which, in data set [1], the IC50 was 0.6 nM.

With `CN1CCC(N(Cc2ccc(F)cc2)C(=O)NCc2ccc(OCC(O)CN3CCN(C(=O)OC(C)(C)C)CC3)cc2)CC1` (configuration not stated), the IC50 in data set [1] came out at 1.94 nM.

Regarding `CC(C)COc1ccc(CNC(=O)N(Cc2ccc(F)cc2)C2CCN(C(=O)C[C@H](N)C(=O)O)CC2)cc1`, the IC50 in data set [1] was found to be 34.6 nM.

Take `CC(C)COc1ccc(CNC(=O)N(Cc2ccc(F)cc2)C2CCN(S(C)(=O)=O)CC2)cc1`: the IC50 in data set [1] is 2020 nM.

On to `CC(C)COc1ccc(CNC(=O)N(Cc2ccc(F)cc2)C2CCN(C)CC2)cc1` [PIMAVANSERIN], for which the results for the concentration at 0.5 h in data set [2] and in data set [3] were 3010 ng/g and 612 ng/mL, respectively. In addition, in data set [4], the Kp at 0.5 h came out at 4.98.
